Test results reported in patent US8936941B2, “Compositions useful for cancer detection and treatment, a cancer stem cell model, and methods of production and use thereof” (priority 2008, dated 2015).

Tests used:
Type in all cases: cell-based, human
[1] = system: let-7a miRNA; assay: pLet7a-Luc luciferase reporter gene assay in SW480 cells; settings: normalized to Renilla luciferase
Procedure: Luciferase reporter gene assay. pLet7a-Luc reporter vector contains a let-7a miRNA specific binding site at the 3′UTR of the firefly (Photinus pyralis) luciferase gene obtained from Signosis Inc (FIG. 26). HCT116 and SW480 cells were transfected with the pLet7a-Luc reporter vector, Renilla luciferase expressing plasmid pRL-TK (Promega) along with DCAMKL-1 or scrambled siRNA using Transfectol™ (Ambion Inc.). Luciferase activity was determined as per the manufacturer's instructions (Dual-Luciferase Reporter Assay System; Promega) using a Monolight 2010 luminometer (Analytical Luminescence Laboratory, San Diego, Calif.) as described earlier [Stadler et al., 2008; Sossey-Alaoui et al., 1999]. The activity, normalized to Renilla Luciferase activity, is presented as relative luciferase units relative to control with ±SEM values. Assays were performed in triplicate wells and experiments were repeated 3 times.

[2] = system: miR-144 miRNA; assay: pMiR-144-Luc luciferase reporter gene assay in AsPC-1 cells
Description: Luciferase Reporter Gene Assay: pLet7a-Luc reporter vector contains a let-7a miRNA specific binding site at the 3′ UTR of the firefly (Photinus pyralis) luciferase gene, pMiR-144-Luc reporter vector containing miR-144 miRNA specific binding site at the 3′UTR of the firefly luciferase gene and KRAS-Luc reporter vector containing specific binding sites for let-7 family members at the 3′UTR of the firefly luciferase gene were obtained from Signosis, Inc. (Sunnyvale, Calif.). Human pancreatic cancer cell lines were transfected with the pLet7a-Luc, pMiR-144-Luc and KRAS-Luc reporter vectors separately with Renilla luciferase expressing plasmid pRL-TK (Promega) along with DCAMKL-1, or scrambled siRNA-using siPORT™ NeoFX™ transfection reagent (Ambion, Inc.). Luciferase activity was determined as per the manufacturer's instructions (Dual Luciferase Reporter Assay System; Promega) using a BioTek Synergy HT (Winooski, Vt.) as described herein above. The activity, normalized to Renilla luciferase activity, is presented as relative luciferase units relative to control with ±SEM values. Assays were performed in triplicate wells, and experiments were repeated 3 times.

[3] = system: DCAMKL-1; assay: siRNA knockdown of DCAMKL-1 in SW480 cells, real-time RT-PCR and Western blot
DCAMKL-1, sequence (O15075 other isoform, or with tags, fused parts or gaps): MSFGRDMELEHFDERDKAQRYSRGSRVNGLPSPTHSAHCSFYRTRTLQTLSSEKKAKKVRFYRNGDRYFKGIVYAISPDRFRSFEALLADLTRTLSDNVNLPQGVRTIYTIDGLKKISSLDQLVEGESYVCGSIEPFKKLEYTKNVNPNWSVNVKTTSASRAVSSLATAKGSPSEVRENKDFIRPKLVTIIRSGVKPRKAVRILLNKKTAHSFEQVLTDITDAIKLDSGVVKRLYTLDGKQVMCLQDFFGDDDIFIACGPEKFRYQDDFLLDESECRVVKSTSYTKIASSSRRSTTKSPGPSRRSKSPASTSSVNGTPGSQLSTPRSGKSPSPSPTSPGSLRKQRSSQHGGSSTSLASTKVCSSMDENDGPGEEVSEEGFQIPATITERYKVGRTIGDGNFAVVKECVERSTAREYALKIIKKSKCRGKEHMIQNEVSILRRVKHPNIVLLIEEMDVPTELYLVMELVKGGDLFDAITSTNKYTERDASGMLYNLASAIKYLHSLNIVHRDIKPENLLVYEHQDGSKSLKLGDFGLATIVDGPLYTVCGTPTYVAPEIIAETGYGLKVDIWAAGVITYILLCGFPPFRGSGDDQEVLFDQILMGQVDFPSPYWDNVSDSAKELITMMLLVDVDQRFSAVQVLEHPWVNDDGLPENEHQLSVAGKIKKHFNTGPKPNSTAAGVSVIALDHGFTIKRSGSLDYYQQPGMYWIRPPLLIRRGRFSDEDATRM
Procedure: Cell culture. HCT116, HCT116 p21^−/− and SW480 human colon adenocarcinoma cell lines were obtained from the American Type Culture Collection (ATCC) and grown in Dulbecco's modified eagle's medium (DMEM) supplemented with 10% fetal bovine serum and 100 U/mL penicillin-streptomycin in a humidified chamber at 37° C. with 5% CO2.
Silencer RNA. DCAMKL-1 siRNA (si-DCAMKL-1) sequence targeting the coding region of DCAMKL-1 (Accession # NM_004734 (SEQ ID NO:1)) ([…] (SEQ ID NO:3)) and scrambled control siRNAs (si-Scr) not matching any of the human genes were obtained (Ambion Inc., Austin, Tex.) and transfected using Transfectol™ (Ambion Inc.).
Real-time reverse transcription-PCR analyses. Total RNA isolated either from cells or from human colon cancer cell tumor xenograft samples was subjected to reverse transcription with Superscript™ II RNase H—Reverse Transcriptase and random hexanucleotide primers (Invitrogen, Carlsbad, Calif.). The cDNA was subsequently used to perform Real-time PCR by SYBR chemistry (SYBR® Green I; Molecular Probes) for specific transcripts using gene specific primers and Jumpstart Taq DNA polymerase (Sigma-Aldrich, St. Louis, Mo.). […] The changes in mRNA were expressed as fold change relative to control with ±SEM value.
miRNA analysis. Total miRNA was isolated using mirVana™ miRNA isolation kit (Ambion Inc.). Total miRNA isolated either from cells or from human colon cancer cell tumor xenograft samples were subjected to reverse transcription with Superscript™ II RNase H—Reverse Transcriptase and random hexanucleotide primers (Invitrogen, Carlsbad, Calif.). The cDNA was subsequently used to perform Real-time PCR by SYBR chemistry (SYBR® Green I; Molecular Probes) for pri-let-7a transcript using specific primers and Jumpstart Taq DNA polymerase (Sigma-Aldrich, St. Louis, Mo.). […] The changes in pri-miRNA were expressed as fold change relative to control with ±SEM value. Primers used are: […]
Western Blot analysis. HCT116 and SW480 cells were cultured in a 6 well plates to 40% confluency and were transfected with si-DCAMKL-1 or si-Scr for 72 h. Cells or the tumor xenograft samples were lysed and the concentration of protein was determined by BCA protein assay kit (Pierce Biotechnology Inc., Rockford, Ill.). Forty μg of the protein was size separated in a 7.5-15% SDS polyacrylamide gel and transferred onto a nitrocellulose membrane with a semidry transfer apparatus (Amersham-Pharmacia, Piscataway, N.J.). The membrane was blocked in 5% non-fat dry milk for 1 h and probed overnight with a rabbit anti-DCAMKL-1 antibody (Abcam Inc., Cambridge, Mass.) or with rabbit anti-c-Myc antibody (Santa Cruz). Subsequently, the membrane was incubated with anti-rabbit or anti-goat IgG horseradish peroxidase-conjugated antibodies (Amersham-Pharmacia) for 1 h at room temperature. The 82 kDa DCAMKL-1 and 49 kDa c-Myc proteins were detected using ECL™ Western Blotting detection reagents (Amersham-Pharmacia). Actin (43 kDa), used as loading control was identified using a goat polyclonal IgG (Santa Cruz Biotechnology Inc., Santa Cruz, Calif.).

[4] = real-time RT-PCR, compared to controls

si-DCAMKL-1: siRNA targeting the coding region of DCAMKL-1 (NM_004734), sequence GGGAGUGAGAACAAUCUAC (SEQ ID NO:3) (chemistry not given here; listed as Homo sapiens)
luciferase activity (let-7a binding site at 3' UTR) [1]: dose dependent reduction
luciferase activity (miR-144 binding site in 3' UTR) [2]: dose-dependent reduction
c-Myc mRNA and protein [3]: Reduction
reduction in Notch-1 mRNA [3]: > 50%
Notch-1 and cleaved Notch-1 protein ([3]; Western blot): dose dependent reduction
DCAMKL-1 protein ([3]; Western blot, 72 h transfection): reduction
reduction in DCAMKL-1 mRNA expression ([3]; real-time RT-PCR): > 70%
increase in pri-let-7a miRNA [3, 4]: 4 fold
increase in pri-miR-144 miRNA [3, 4]: 3 fold
